Reference: patent US9403808B2, “Pyrazine derivatives” (Hoffmann-La Roche Inc., priority 2011, dated 2016)

Key:
[1] = target: human CB1 receptors (Homo sapiens (Human), UniProt P21554); test: functional cAMP assay, CB1; assay type: cell-based; details: functional cAMP assay, CHO cells expressing human CB1; read-out: human CB1 EC50
Experimental: (§1) CHO cells expressing human CB1 or CB2 receptors are seeded 17-24 hours prior to the experiment 50.000 cells per well in a black 96 well plate with flat clear bottom (Corning Costar #3904) in DMEM (Invitrogen No. 31331), 1×HT supplement, with 10% fetal calf serum and incubated at 5% CO2 and 37° C. in a humidified incubator. The growth medium was exchanged with Krebs Ringer Bicarbonate buffer with 1 mM IBMX and incubated at 30° C. for 30 min. Compounds were added to a final assay volume of 100 μl and incubated for 30 min at 30° C. Using the cAMP-Nano-TRF detection kit the assay (Roche Diagnostics) was stopped by the addition of 50 μl lysis reagent (Tris, NaCl, 1.5% Triton X100, 2.5% NP40, 10% NaN3) and 50 μl detection solutions (20 μM mAb Alexa700-cAMP 1:1, and 48 μM Ruthenium-2-AHA-cAMP) and shaken for 2 h at room temperature. The time-resolved energy transfer is measured by a TRF reader (Evotec Technologies GmbH), equipped with a ND:YAG laser as excitation source. The plate is measured twice with the excitation at 355 nm and at the emission with a delay of 100 ns and a gate of 100 ns, total exposure time 10s at 730 (bandwidth 30 nm) or 645 nm (bandwidth 75 nm), respectively. The FRET signal is calculated as follows: FRET=T730-Alexa730-P(T645-B645) with P=Ru730-B730/Ru645-B645, where T730 is the test well measured at […], T645 is the test well measured at 645 nm, B730 and B645 are the buffer controls at 730 nm and 645 nm, respectively. cAMP content is determined from the function of a standard curve spanning from 10 μM to 0.13 nM cAMP.
(§2) EC50 values were determined using Activity Base analysis (ID Business Solution, Limited). The EC50 values for a wide range of cannabinoid agonists generated from this assay were in agreement with the values published in the scientific literature.

[2] = target: human CB2 receptors (Homo sapiens (Human), UniProt P34972); test: functional cAMP assay, CB2; assay type: cell-based; details: functional cAMP assay, CHO cells expressing human CB2; read-out: human CB2 EC50
Experimental: as §1, §2

Sequence of human CB2 receptors (P34972 whole entry): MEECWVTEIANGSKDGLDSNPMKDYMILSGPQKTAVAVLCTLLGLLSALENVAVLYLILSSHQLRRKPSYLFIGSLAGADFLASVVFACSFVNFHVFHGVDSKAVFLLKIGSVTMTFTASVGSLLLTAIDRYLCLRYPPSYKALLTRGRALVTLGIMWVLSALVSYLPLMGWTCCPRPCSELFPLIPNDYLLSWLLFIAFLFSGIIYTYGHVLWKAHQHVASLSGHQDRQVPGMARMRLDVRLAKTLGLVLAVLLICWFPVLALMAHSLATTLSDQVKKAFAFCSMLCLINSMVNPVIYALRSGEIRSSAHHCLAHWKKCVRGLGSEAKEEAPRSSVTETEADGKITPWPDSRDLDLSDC
Sequence of human CB1 receptors (P21554 whole entry): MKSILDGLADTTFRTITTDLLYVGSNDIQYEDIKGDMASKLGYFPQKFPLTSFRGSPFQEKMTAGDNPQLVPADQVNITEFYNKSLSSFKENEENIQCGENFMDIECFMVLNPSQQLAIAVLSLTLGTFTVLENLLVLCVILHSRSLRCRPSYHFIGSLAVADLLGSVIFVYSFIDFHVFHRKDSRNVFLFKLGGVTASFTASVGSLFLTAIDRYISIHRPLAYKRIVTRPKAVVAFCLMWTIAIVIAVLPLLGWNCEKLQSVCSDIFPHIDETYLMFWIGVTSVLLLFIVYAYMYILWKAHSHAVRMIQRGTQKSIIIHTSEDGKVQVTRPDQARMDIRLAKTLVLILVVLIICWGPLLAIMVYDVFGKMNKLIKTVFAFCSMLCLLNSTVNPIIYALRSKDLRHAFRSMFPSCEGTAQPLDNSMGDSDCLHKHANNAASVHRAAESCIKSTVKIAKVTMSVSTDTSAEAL

SMILES | EC50 [1] [nM] | EC50 [2] [nM]
NC(=O)[C@H](Cc1ccccc1)NC(=O)c1cnc(C2CC2)c(OCC2CC2)n1 [Example 37, 5-Cyclopropyl-6-cyclopropylmethoxy-pyrazine-2-carboxylic acid ((S)-1-carbamoyl-2-phenyl-ethyl)-amide] | 1640 | 108
NC(=O)[C@H](Cc1ccccc1)NC(=O)c1cnc(N2CC(F)(F)C2)c(OCC2CC2)n1 [Example 38, 6-Cyclopropylmethoxy-5-(3,3-difluoro-azetidin-1-yl)-pyrazine-2-carboxylic acid ((S)-1-carbamoyl-2-phenyl-ethyl)-amide] | > 10000 | 44.4
NC(=O)[C@H](CC1CC1)NC(=O)c1cnc(N2CC(F)(F)C2)c(OCC2CC2)n1 [Example 39, 6-Cyclopropylmethoxy-5-(3,3-difluoro-azetidin-1-yl)-pyrazine-2-carboxylic acid ((S)-1-carbamoyl-2-cyclopropyl-ethyl)-amide] | > 10000 | 11
CC(C)(C)[C@H](NC(=O)c1cnc(C2CC2)c(OCC2CC2)n1)C(=O)O [Example 44, (S)-2-[(5-Cyclopropyl-6-cyclopropylmethoxy-pyrazine-2-carbonyl)-amino]-3,3-dimethyl-butyric acid] | > 10000 | 442
Cc1nc(C(C)(C)NC(=O)c2cnc(C3CC3)c(OCC3CC3)n2)no1 [Example 45, 5-Cyclopropyl-6-cyclopropylmethoxy-pyrazine-2-carboxylic acid [1-methyl-1-(5-methyl-[1,2,4]oxadiazol-3-yl)-ethyl]-amide] | > 10000 | 51.4
C[C@H](NC(=O)c1cnc(C2CC2)c(OCC2CC2)n1)c1ccccn1 [Example 46, 5-Cyclopropyl-6-cyclopropylmethoxy-pyrazine-2-carboxylic acid ((S)-1-pyridin-2-yl-ethyl)-amide] | > 10000 | 291
O=C(N[C@H](c1ccccn1)C(F)(F)F)c1cnc(N2CC(F)(F)C2)c(OCC2CC2)n1 [Example 47, 6-Cyclopropylmethoxy-5-(3,3-difluoro-azetidin-1-yl)-pyrazine-2-carboxylic acid ((R)-2,2,2-trifluoro-1-pyridin-2-yl-ethyl)-amide] | > 10000 | 72.9
O=C(N[C@@H](c1ccccn1)C(F)(F)F)c1cnc(N2CC(F)(F)C2)c(OCC2CC2)n1 [Example 48, 6-Cyclopropylmethoxy-5-(3,3-difluoro-azetidin-1-yl)-pyrazine-2-carboxylic acid ((S)-2,2,2-trifluoro-1-pyridin-2-yl-ethyl)-amide] | > 10000 | 24.4
O=C(N[C@@H](c1ccccn1)C(F)(F)F)c1cnc(C2CC2)c(OCC2CC2)n1 [Example 49, 5-Cyclopropyl-6-cyclopropylmethoxy-pyrazine-2-carboxylic acid ((S)-2,2,2-trifluoro-1-pyridin-2-yl-ethyl)-amide] | > 10000 | 107
CCC(CC)(NC(=O)c1cnc(N2CC(F)(F)C2)c(OCC2CC2)n1)C(=O)NC [Example 50, 6-Cyclopropylmethoxy-5-(3,3-difluoro-azetidin-1-yl)-pyrazine-2-carboxylic acid (1-ethyl-1-methylcarbamoyl-propyl)-amide] | > 10000 | 7.4
CC(C)[C@](C)(CO)NC(=O)c1cnc(C2CC2)c(OCC2CC2)n1 [Example 51, 5-Cyclopropyl-6-cyclopropylmethoxy-pyrazine-2-carboxylic acid ((R)-1-hydroxymethyl-1,2-dimethyl-propyl)-amide] | > 10000 | 137
CC(C)[C@@](C)(CO)NC(=O)c1cnc(C2CC2)c(OCC2CC2)n1 [Example 52, 5-Cyclopropyl-6-cyclopropylmethoxy-pyrazine-2-carboxylic acid ((S)-1-hydroxymethyl-1,2-dimethyl-propyl)-amide] | > 10000 | 36.9
CCC(CC)(NC(=O)c1cnc(C2CC2)c(OCC2CC2)n1)C(=O)NC [Example 53, 5-Cyclopropyl-6-cyclopropylmethoxy-pyrazine-2-carboxylic acid (1-ethyl-1-methylcarbamoyl-propyl)-amide] | > 10000 | 15.1
Cc1csc(C(C)(C)NC(=O)c2cnc(C3CC3)c(OCC3CC3)n2)n1 [Example 54, 5-Cyclopropyl-6-cyclopropylmethoxy-pyrazine-2-carboxylic acid [1-methyl-1-(4-methyl-thiazol-2-yl)-ethyl]-amide] | > 10000 | 188
Cc1csc(C(C)(C)NC(=O)c2cnc(N3CC(F)(F)C3)c(OCC3CC3)n2)n1 [Example 55, 6-Cyclopropylmethoxy-5-(3,3-difluoro-azetidin-1-yl)-pyrazine-2-carboxylic acid [1-methyl-1-(4-methyl-thiazol-2-yl)-ethyl]-amide] | > 10000 | 22
Cc1nc([C@@H](C)NC(=O)c2cnc(N3CC(F)(F)C3)c(OCC3CC3)n2)no1 [Example 56, 6-Cyclopropylmethoxy-5-(3,3-difluoro-azetidin-1-yl)-pyrazine-2-carboxylic acid [(R)-1-(5-methyl-[1,2,4]oxadiazol-3-yl)-ethyl]amide] | > 10000 | 72.5
CC(C)(NC(=O)c1cnc(C2CC2)c(OCC2CC2)n1)c1noc(N)n1 [Example 57, 5-Cyclopropyl-6-cyclopropylmethoxy-pyrazine-2-carboxylic acid [1-(5-amino-[1,2,4]oxadiazol-3-yl)-1-methyl-ethyl]-amide] | > 10000 | 221
CC(C)(NC(=O)c1cnc(N2CC(F)(F)C2)c(OCC2CC2)n1)c1noc(N)n1 [Example 58, 6-Cyclopropylmethoxy-5-(3,3-difluoro-azetidin-1-yl)-pyrazine-2-carboxylic acid [1-(5-amino-[1,2,4]oxadiazol-3-yl)-1-methyl-ethyl]-amide] | > 10000 | 178
C[C@@](NC(=O)c1cnc(N2CC(F)(F)C2)c(OCC2CC2)n1)(C(N)=O)c1ccccc1 [Example 59, 6-Cyclopropylmethoxy-5-(3,3-difluoro-azetidin-1-yl)-pyrazine-2-carboxylic acid ((S)-1-carbamoyl-1-phenyl-ethyl)-amide] | > 10000 | 49.2
Cc1nc(C(C)(CC2CC2)NC(=O)c2cnc(N3CC(F)(F)C3)c(OCC3CC3)n2)no1 (centres unmarked) [Example 60, 6-Cyclopropylmethoxy-5-(3,3-difluoro-azetidin-1-yl)-pyrazine-2-carboxylic acid [2-cyclopropyl-1-methyl-1-(5-methyl-[1,2,4]oxadiazol-3-yl)-ethyl]-amide] | > 10000 | 14.6
Cc1nc(C(C)(NC(=O)c2cnc(N3CC(F)(F)C3)c(OCC3CC3)n2)C2CC2)no1 (centres unmarked) [Example 61, 6-Cyclopropylmethoxy-5-(3,3-difluoro-azetidin-1-yl)-pyrazine-2-carboxylic acid [1-cyclopropyl-1-(5-methyl-[1,2,4]oxadiazol-3-yl)-ethyl]-amide] | > 10000 | 17.9
Cc1nc(C(C)(NC(=O)c2cnc(C3CC3)c(OCC3CC3)n2)C2CC2)no1 (centres unmarked) [Example 62, 5-Cyclopropyl-6-cyclopropylmethoxy-pyrazine-2-carboxylic acid [1-cyclopropyl-1-(5-methyl-[1,2,4]oxadiazol-3-yl)-ethyl]-amide] | 1650 | 22.8
